Results on four compounds are retold here after ChEMBL document CHEMBL1127887, “Synthesis and in vitro cardiovascular activity of 4-aryl-2,3,3a,4-tetrahydro-1h-pyrrolo[2,1-c][1,4]benzothiazin-1-ones and 7-acetoxy-6-phenyl-7a,8,9,10-tetrahydropyrrolo [2,1,-d][1,5]benzothiazepin-10-one” (Bioorg Med Chem Lett, 1994).

For test [1], the species on record is Cavia porcellus. Nature of the test: Calcium antagonist potency on K+ depolarized guinea pig aortic strips. Type of test: functional. The following applies: Aorta.
Test [2] is filed under the species Cavia porcellus. In words: Negative chronotropic activity on isolated guinea pig right atrium at 5x10E-5 mol/L concentration was determined. Type of test: functional, Cardiac atrium.
The species named for test [3] is Cavia porcellus. Nature of the test: Negative inotropic activity on isolated guinea pig left atrium at 10E-4 mol/L concentration was determined. Type of test: functional, Cardiac atrium.
The target of test [4] is T1, Voltage-gated L-type calcium channel (Rattus norvegicus, UniProt P22002+Q02485+P27732). In words: Displacement of [3H]nitrendipine from calcium channel receptors (CCRs) from rat cortex homogenate. (In general: Displacement assays read how much labelled ligand stays bound in the presence of the test substance.)
The target in test [5] is T1, Voltage-gated L-type calcium channel. In words: Inhibitory constant against calcium channel receptors (CCRs) from rat cortex homogenate.
The species entered for test [6] is Cavia porcellus. Nature of the test: Calcium antagonist activity on K+ depolarized guinea pig aortic strips at 10E-4 mol/L concentration was determined. The following applies: Aorta. Type of test: functional.
Test [7] is filed under the species Cavia porcellus. In words: Negative inotropic potency on isolated guinea pig left atrium. Type of test: functional, Cardiac atrium.
Test [8] addresses T1, Voltage-gated L-type calcium channel. Nature of the test: Displacement of [3H]nitrendipine from calcium channel receptors (CCRs). Type of test: protein assay.
Test [9] has the same target. Nature of the test: Inhibitory constant against calcium channel receptors (CCRs). Type of test: protein assay.

By IC50 is commonly meant the concentration that gives 50% inhibition. In general, Ki refers to the equilibrium dissociation constant of an inhibitor or competing ligand from its target. In general, inhibition refers to the change of the read-out against control, counted positive when it falls. For `O=C1CCC2C(c3ccccc3)Sc3ccccc3N12` (stereo unspecified), the figures for the 50% inhibitory concentration (IC50) (in the test filed under Cavia porcellus [1]; in test [4]) were 20000 nM and 0.78 nM, respectively. For the same compound, the Decrease was 20% in the test listed under Cavia porcellus [2] and 66% in the test listed under Cavia porcellus [3]. For the same compound, in [5], the Ki is on record as 0.29 nM. Further, the inhibition at 100 µM in the test listed under Cavia porcellus [6] was 37%. Besides, the ED50 in the test filed under Cavia porcellus [7] is 0.23 uM l-1.
`COc1ccc(C2Sc3ccccc3N3C(=O)CCC23)cc1` (stereo unspecified): the IC50 in the test listed under Cavia porcellus [1] was found to be 16600 nM; in test [8] it was 1800 nM. Also, the Decrease in the test listed under Cavia porcellus [2] amounted to 39%; in the test filed under Cavia porcellus [3] it was 60%. In test [9], the inhibition constant Ki was determined as 675 nM. For the same compound, the inhibition at 100 µM in the test filed under Cavia porcellus [6] was 32%. The compound further showed an ED50 in the test filed under Cavia porcellus [7] of 1.2 uM l-1.
Regarding `CC(=O)OC1=C(c2ccccc2)Sc2ccccc2N2C(=O)CCC12` (stereo unspecified), the IC50 stood at 32400 nM in the test listed under Cavia porcellus [1] and 1550 nM in test [8]. In addition, the figures for the Decrease in the test filed under Cavia porcellus [2] and in the test filed under Cavia porcellus [3] were 27% and 96%, respectively. The inhibition constant Ki in test [9] is reported as 581 nM. Besides, the inhibition at 100 µM in the test listed under Cavia porcellus [6] came to 26%. The same compound had an ED50 in the test filed under Cavia porcellus [7] of 1.1 uM l-1.
As to `COc1ccc([C@@H]2Sc3ccccc3N(CCN(C)C)C(=O)[C@@H]2OC(C)=O)cc1` [DILTIAZEM], the IC50 in the test listed under Cavia porcellus [1] is 2600 nM. Also, the figures for the Decrease in the test listed under Cavia porcellus [2] and in the test filed under Cavia porcellus [3] were 94% and 78%, respectively. Further, the inhibition at 100 µM in the test listed under Cavia porcellus [6] was determined as 88%. The ED50 in the test listed under Cavia porcellus [7] turned out to be 0.79 uM l-1.
